For twelve compounds, TGI results are on record in PubChem BioAssay (NCI).

Some test systems named below: HCT-15 colon; MALME-3M melanoma; MCF7 breast; NCI-H522 lung; NCI/ADR-RES ovarian; OVCAR-3 ovarian; OVCAR-4 ovarian; RXF 393 renal; SK-MEL-28 melanoma; SR leukemia; UO-31 renal.
Holding throughout (assay): NCI anticancer screen, dose series, 48 h

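How tested: cells in 96-well plates exposed to compound for 48 hours at five concentrations. TGI: concentration producing complete growth inhibition.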

With `CC[C@]12C=CCN3CCC4(c5cc(N=Nc6ccccc6)c(OC)cc5N(C)[C@H]4[C@@](O)(C(=O)OC)[C@@H]1OC(C)=O)[C@@H]32` (some centres undefined), the TGI was 34.4 µM in the assay with HCT-15 colon; 33.5 µM in the assay with MALME-3M melanoma; 34.4 µM in the assay on MCF7 breast; 33 µM in the assay with NCI-H522 lung; 55.6 µM in the assay with NCI/ADR-RES ovarian; 28.1 µM in the assay with OVCAR-3 ovarian. In addition, the TGI in the assay with OVCAR-4 ovarian is 38.8 µM; in the assay with RXF 393 renal, 30.9 µM; in the assay with SK-MEL-28 melanoma, 36.8 µM; in the assay with SR leukemia, 45.5 µM; in the assay on UO-31 renal, 29.8 µM.

In the case of `Cn1c(=O)c2c(-c3ccccc3)onc2n(C)c1=O`, the TGI in the assay with HCT-15 colon is greater than 100 µM; in the assay on MALME-3M melanoma, greater than 100 µM; with MCF7 breast, greater than 100 µM; with NCI-H522 lung, greater than 100 µM; with NCI/ADR-RES ovarian, greater than 100 µM; in the assay with OVCAR-3 ovarian it was 53.1 µM. For the same compound, the TGI is greater than 100 µM in the assay with OVCAR-4 ovarian, greater than 100 µM in the assay with RXF 393 renal, 75.2 µM in the assay with SR leukemia and greater than 100 µM in the assay with UO-31 renal.

Turning to `Nc1ccc2c(c1)C(=O)c1ccccc1-2`, the TGI in the assay on HCT-15 colon, with MALME-3M melanoma, with MCF7 breast, with NCI-H522 lung, with NCI/ADR-RES ovarian and in the assay on OVCAR-3 ovarian was greater than 100 µM throughout. Besides, the TGI with OVCAR-4 ovarian, in the assay on RXF 393 renal, in the assay on SK-MEL-28 melanoma, in the assay with SR leukemia and with UO-31 renal was greater than 100 µM in each case.

As for `O=C(C1=C(C(=O)c2ccccc2)SC2(S1)C(C(=O)c1ccccc1)=C(C(=O)c1ccccc1)Sc1c2ssc1=O)c1ccccc1`, the TGI with HCT-15 colon is greater than 100 µM; with MALME-3M melanoma, greater than 100 µM; with MCF7 breast, greater than 100 µM; in the assay with NCI-H522 lung, 85.5 µM; with NCI/ADR-RES ovarian, greater than 100 µM; in the assay with OVCAR-3 ovarian, greater than 100 µM. Also, the TGI in the assay on OVCAR-4 ovarian, with RXF 393 renal, with SK-MEL-28 melanoma, in the assay on SR leukemia and with UO-31 renal was greater than 100 µM each time.

For the compound `O=C(CC(O)(C(F)(F)F)C(F)(F)F)C(CCCl)C(O)(C(F)(F)F)C(F)(F)F` (centres undefined), the TGI with HCT-15 colon is greater than 100 µM; in the assay with MALME-3M melanoma, 76.1 µM; in the assay on MCF7 breast it was greater than 100 µM; in the assay with NCI-H522 lung it was greater than 100 µM; with NCI/ADR-RES ovarian, 46.7 µM; with OVCAR-3 ovarian, 65.3 µM. Moreover, the TGI was greater than 100 µM with OVCAR-4 ovarian; 70.9 µM with RXF 393 renal; greater than 100 µM in the assay with SK-MEL-28 melanoma; greater than 100 µM in the assay with SR leukemia; 73.3 µM in the assay on UO-31 renal.

Regarding `O=C(c1ccccc1)c1c(C(F)(F)F)n([O-])c2ccccc2[n+]1=O`, the TGI in the assay on HCT-15 colon was greater than 100 µM; with MCF7 breast, 5.24 µM; in the assay with NCI-H522 lung, 2 µM; in the assay on NCI/ADR-RES ovarian, greater than 100 µM; in the assay on OVCAR-3 ovarian it was 1.41 µM; with OVCAR-4 ovarian it was 1.11 µM. Besides, the TGI in the assay with RXF 393 renal turned out to be 3.83 µM; with SK-MEL-28 melanoma, 4.33 µM; in the assay with SR leukemia it was 0.413 µM; in the assay on UO-31 renal it was 2.27 µM.

For the compound `Cc1ccc(S(=O)(=O)n2cncc2CO)cc1`, the TGI in the assay with HCT-15 colon, in the assay with MALME-3M melanoma, in the assay with MCF7 breast, in the assay with NCI-H522 lung, in the assay with NCI/ADR-RES ovarian and in the assay on OVCAR-3 ovarian was greater than 100 µM each time. The TGI in the assay on OVCAR-4 ovarian, with RXF 393 renal, in the assay with SK-MEL-28 melanoma, in the assay on SR leukemia and in the assay on UO-31 renal was greater than 100 µM in each case.

Regarding `C=CCC(CNC(=O)OCc1ccccc1)O[Si](C)(C)C(C)(C)C` (centres undefined), the TGI was greater than 100 µM with HCT-15 colon; 57.7 µM in the assay on MCF7 breast; 64.8 µM in the assay with NCI-H522 lung; greater than 100 µM with NCI/ADR-RES ovarian; greater than 100 µM in the assay with OVCAR-3 ovarian; greater than 100 µM in the assay with OVCAR-4 ovarian. Moreover, the TGI was 47.6 µM in the assay with RXF 393 renal, greater than 100 µM in the assay on SK-MEL-28 melanoma, 46.4 µM with SR leukemia and 63.1 µM in the assay with UO-31 renal.

With `CC1(C)O[C@@H](CO)[C@H]([C@@]23OC[C@H]4OC(C)(C)OC4[C@@H]2OC(C)(C)O3)O1` (some centres undefined), the TGI with HCT-15 colon, in the assay on MALME-3M melanoma, in the assay with MCF7 breast, in the assay on NCI-H522 lung, in the assay with NCI/ADR-RES ovarian and in the assay on OVCAR-3 ovarian was greater than 100 µM in each case. Also, the TGI in the assay on OVCAR-4 ovarian, with RXF 393 renal, in the assay with SK-MEL-28 melanoma, in the assay with SR leukemia and in the assay on UO-31 renal was greater than 100 µM in each case.

Take `O=C(O)C(CCc1ccccn1)c1ccccc1` (centres undefined): the TGI in the assay on HCT-15 colon, in the assay on MALME-3M melanoma, in the assay on MCF7 breast, in the assay on NCI-H522 lung, in the assay with NCI/ADR-RES ovarian and in the assay with OVCAR-3 ovarian was greater than 100 µM each time. The TGI with OVCAR-4 ovarian, with RXF 393 renal, with SK-MEL-28 melanoma, in the assay with SR leukemia and in the assay on UO-31 renal was greater than 100 µM each time.

Take `CCOC(=O)c1cc2c(OC(C)=O)ccc(OC(C)=O)c2s1`: the TGI stood at 3.34 µM in the assay on HCT-15 colon; 3.6 µM in the assay with MALME-3M melanoma; 11.8 µM in the assay with MCF7 breast; 1.07 µM with NCI-H522 lung; 5.79 µM in the assay with NCI/ADR-RES ovarian; 3.15 µM in the assay with OVCAR-3 ovarian. Moreover, the TGI is 31.3 µM with OVCAR-4 ovarian; 3.42 µM in the assay with RXF 393 renal; 5.45 µM with SK-MEL-28 melanoma; greater than 22.7 µM in the assay with SR leukemia; 2.76 µM in the assay on UO-31 renal.

For the compound `Cc1cc2ccccc2c[n+]1CC(O)C[n+]1cc2ccccc2cc1C`, the TGI in the assay on HCT-15 colon, in the assay on MALME-3M melanoma, in the assay on MCF7 breast, in the assay with NCI-H522 lung, in the assay on NCI/ADR-RES ovarian and with OVCAR-3 ovarian was greater than 100 µM in each case. Besides, the TGI with OVCAR-4 ovarian, in the assay with RXF 393 renal, in the assay with SK-MEL-28 melanoma, in the assay with SR leukemia and in the assay on UO-31 renal was greater than 100 µM each time.
